# Measured values published in patent EP4763206A1, “AGENT FOR SUPPRESSING AGGREGATION OF TDP-43, AGENT FOR SUPPRESSING CELL DEATH OF CELLS IN WHICH TDP-43 IS OVEREXPRESSED, AND AGENT FOR PREVENTING OR TREATING DISEASES ASSOCIATED WITH AGGREGATION OF TDP-43” (Socium Inc., priority 2023, dated 2025).
# “Also recorded” adds a separate entry of the source. Where two headings read alike, the source gives them in different places.
# Assays:
# [1] = cited from earlier work
# TDP-43 [2] = assay: Soluble/insoluble TDP-43 fractions in motor neurons derived from iPS cells of ALS patients, western blot (Reference Example 4); type: cell-based, human; details: 10 µmol/L; for bands for insoluble fractions of TDP-43: cultured for 20 days (Figure 7); for average proportion of insoluble fractions of TDP-43: cultured for 20 days, three experiments, untreated ALS about 46.1%, healthy about 7.4%
# Neuro2a cells [3] = assay: Cell death suppression by D-cycloserine combined with edaravone in TDP-43-transfected Neuro2a cells (Example 1); type: cell-based; details: Mus musculus, N2a
# Procedure: Neuro2a cells were seeded on a dish. On the first day after seeding, differentiation into neurons was initiated. On the fourth day after seeding, cells were transfected with the TDP-43 gene. […] The proportion of dead cells was evaluated 7 days after the cells were transfected with the TDP-43 gene. […] Here, the relative viability indicates the proportion of the number of viable cells overexpressing TDP-43 based on 100% of the number of viable cells not overexpressing TDP-43. […] The CI was calculated using the following formula. […] CI=1 indicates an additive effect, CI>1 indicates an antagonistic effect, and CI<1 indicates a synergistic effect.
# Neuro2a cells [4] = assay: Suppression of cell death in TDP-43-transfected Neuro2a cells (Reference Example 2); type: cell-based, Mouse; details: 10 to 10,000 nmol/L added 5 hours after transfection; evaluated 7 days after transfection (Figures 3, 4)
# Procedure: Neuro2a cells were seeded on a dish. On the first day after seeding, differentiation into neurons was initiated. On the fourth day after seeding, cells were transfected with the TDP-43 gene. […] In addition, as a control, 10 nmol/L, 50 nmol/L, 100 nmol/L, 500 nmol/L, 1,000 nmol/L, 5,000 nmol/L, or 10,000 nmol/L of ropinirole was added to a culture medium.
# The proportion of dead cells was evaluated 7 days after the cells were transfected with the TDP-43 gene.
# [5] = cited from earlier work; remark: listed apart in the source
# TDP-43 [6] = assay: Soluble/insoluble TDP-43 fractions in motor neurons derived from iPS cells of healthy subjects, western blot (Reference Example 4); type: cell-based, human; details: 10 µmol/L, cultured for 20 days (Figure 7)
# Procedure: 100 µL of an EHS-gel basement membrane matrix (commercially available from FUJIFILM Wako Pure Chemical Corporation) was added to 12.5 mL of DMEM (Dulbecco's Modified Eagle Medium, commercially available from FUJIFILM Wako Pure Chemical Corporation) and mixed, and the mixture was added to a 24-well plate at 600 µL per well. The plate was left at room temperature for 2 hours, and the solution was then removed from the wells. Next, 600 µL of DMEM was added to each well, and the plate was left at room temperature for 2 hours.
# Motor neurons derived from iPS cells of healthy subjects and motor neurons derived from iPS cells of ALS patients were obtained from iXCells Biotechnologies. The motor neurons were quickly thawed in a thermostatic oven at 37°C and suspended in a motor neuron maintenance culture medium (iXCells Biotechnologies). […]
# The soluble protein fractions and the insoluble protein fractions were subjected to SDS-PAGE, and the proteins were transferred to a PVDF membrane. […] Next, the PVDF membrane was washed three times with a buffer solution, 1 mL of a luminescence reagent (ImmunoStar LD, commercially available from FUJIFILM Wako Pure Chemical Corporation) was then used to induce luminescence from the labeled secondary antibodies, and the PVDF membrane was imaged.
# [7] = Reported human pharmacokinetics of D-cycloserine; type: in vivo, humans; details: estimated; 15 mg orally administered twice daily
# TDP-43 [8] = assay: Soluble/insoluble TDP-43 fractions in TDP-43-transfected Neuro2a cells, western blot (Reference Example 3); type: cell-based, Mouse; details: 10 µmol/L added 6 hours after transfection; for number of soluble fractions versus insoluble fractions of TDP-43: cultured for 12 hours (Figure 5); for proportion of insoluble fractions based on total of soluble and insoluble fractions of TDP-43: cultured for 12 hours (Figure 6)
# Procedure: Mouse neuroblastoma (Neuro2a) cells were seeded on a dish. The Neuro2a cells were cultured in a culture medium containing DMEM+10% FBS at 37°C in the presence of 5% CO2. On the first day after seeding, differentiation into neurons was initiated. Differentiation into neurons was performed in a culture medium containing DMEM+2% FBS+20 µmol/L retinoic acid. On the fourth day after seeding, cells were transfected with synthesized TDP-43 mRNA by a lipofection method. Cells were sampled at 6 hours, 9 hours, 12 hours, 15 hours, 18 hours, and 21 hours after transfection. […] For sampling, cells were lysed in an RIPA buffer and centrifuged at 22,000×g for 30 minutes at 4°C, the supernatant was used as the soluble fraction, the precipitate was used as the insoluble fraction, and equal volumes of a 2×SDS sample buffer were added to the respective fractions and heated at 95°C for 5 minutes to prepare electrophoresis samples. The electrophoresis samples were subjected to electrophoresis using a polyacrylamide gel, TDP-43 was then transferred to a PVDF membrane. TDP-43 was detected through chemiluminescence using anti-TDP-43 antibodies as primary antibodies and HRP-conjugated anti-rabbit antibodies as secondary antibodies. […] The insoluble fractions of TDP-43 indicate the aggregation of TDP-43.
# Neuro2a cells were seeded on a dish. On the first day after seeding, differentiation into neurons was initiated. On the fourth day after seeding, cells were transfected with the TDP-43 gene.
SMILES,side effects ([1]; 150 mg administered to humans),side effects ([1]; 250 mg administered to humans to treat tuberculosis),bands for insoluble fractions of TDP-43 (TDP-43 [2]),average proportion of insoluble fractions of TDP-43 (TDP-43 [2]),"EC50 (Neuro2a cells [3]; read-out: EC50 of the cell death suppressory effect of D-cycloserine, at 0 nmol/L of edaravone)","EC50 (Neuro2a cells [3]; read-out: EC50 of the cell death suppressory effect of D-cycloserine, at 10 nmol/L of edaravone)","EC50 (Neuro2a cells [3]; read-out: EC50 of the cell death suppressory effect of D-cycloserine, at 30 nmol/L of edaravone)","EC50 (Neuro2a cells [3]; read-out: EC50 of the cell death suppressory effect of D-cycloserine, at 100 nmol/L of edaravone)","EC50 (Neuro2a cells [3]; read-out: EC50 of the cell death suppressory effect of D-cycloserine, at 300 nmol/L of edaravone)","EC50 (Neuro2a cells [3]; read-out: EC50 of the cell death suppressory effect of D-cycloserine, at 1,000 nmol/L of edaravone)",cell death in cells transfected with the TDP-43 gene (Neuro2a cells [4]),"Cmax ([5]; 15 mg orally administered to humans, read-out: maximum blood concentration (Cmax))",half-life ([5]; in vivo),bands for insoluble fractions of TDP-43 (TDP-43 [6]),trough value [7],number of soluble fractions versus insoluble fractions of TDP-43 (TDP-43 [8]),proportion of insoluble fractions based on total of soluble and insoluble fractions of TDP-43 (TDP-43 [8])
"N[C@@H]1CONC1=O [D-cycloserine, (4R)-4-Amino-1,2-oxazolidin-3-one]",headaches,serious side effects such as epileptiform seizure and mental confusion,bands for insoluble fractions were unclear,about 17.4%,151 nM,149 nM,135 nM,119 nM,107 nM,87.6 nM,cell death was inhibited; also recorded: exhibited an effect of inhibiting cell death in a concentration-dependent manner,~5.6 µM,about 10 hours,bands for insoluble fractions were unclear,> 128 nmol/L,the number of soluble fractions of TDP-43 was larger than the number of insoluble fractions of TDP-43,less than half
"N[C@H]1CONC1=O [L-cycloserine, (4S)-4-amino-1,2-oxazolidin-3-one]",,,,,,,,,,,exhibited an effect of inhibiting cell death in a concentration-dependent manner,,,,,the number of soluble fractions of TDP-43 was larger than the number of insoluble fractions of TDP-43,less than half
CCCN(CCC)CCc1cccc2c1CC(=O)N2 [ropinirole],,,bands for insoluble fractions were unclear,about 19.3%,,,,,,,,,,bands for insoluble fractions were unclear,,,
